Measured values: patent US8999654B2, “Method of identifying a compound for the treatment or prevention of obesity” (Omeros Corporation, priority 2003, dated 2015)

Columns and labels:
[1] = test system: CHO cells stably transfected with a GPCR expression vector; assay: Intracellular calcium measurement using FLIPR; assay type: cell-based; settings: positive controls; FLIPR fluorescence, signal measured for approximately 200 seconds
Description: Changes in intracellular calcium levels are another recognized indicator of G protein-coupled receptor activity, and such assays can be employed to screen for modulators of GPCR activity. For example, CHO cells stably transfected with a GPCR expression vector are plated at a density of 40,000 cells/well in 96-well plates specially designed to discriminate fluorescence signals emanating from the various wells on the plate. The cells are incubated for 60 minutes at 37° C. in modified Dulbecco's PBS containing pyruvate and 1 g/L glucose with the addition of 1% fetal bovine serum and one of four calcium indicator dyes (Fluo-3™ AM, Fluo-4™ AM, Calcium Green™-1 AM, or Oregon Green™ BAPTA-1 AM). Plates are washed once with modified Dulbecco's PBS without 1% fetal bovine serum and incubated for 10 minutes at 37° C. to remove residual dye from the cellular membrane. […] Fluorescence is measured by Molecular Device's FLIPR with an argon laser (excitation […]) (Kuntzweiler et al., Drug Development Research, 44(1):14-20 (1998)).
Basal fluorescence of cells was measured for 20 seconds prior to addition of candidate agonist, ATP, or A23187, and the basal fluorescence level was subtracted from the response signal. The calcium signal is measured for approximately 200 seconds, taking readings every two seconds. […]

GPR88 KO and WT mice [2] = assay: Amphetamine-induced hyperactivity, open field activity test; assay type: in vivo, mouse; settings: amphetamine 2.5 mg/kg i.p., 30 min before test, monitored 20 min; both WT and GPR88 KO mice, p<0.001
From the text: However, the activity level of KO mice (n=18) was much higher than that of the WT mice (n=18) (p<0.001 for the first 4-min block, p<0.05 for the second 4-min block, p<0.05 during the whole 20-min period). There was a strong genotype×treatment interaction for the first 4-min block (F(3,68)=10.5, p<0.01, two-way ANOVA).
Another test assays open field activity. Locomotor activity is detected by photobeam breaks as the animal crosses each beam. Measurements used to assess locomotor activity include, for example, total distance traveled, total number of rearing events (animal raises up on hindlimbs), and distance traveled in the center compared to total distance traveled (center: total distance ratio). Typically, mice are placed in the center of the field. Mice will normally explore the edges/walls first and then, over time, spend more time in the center as they become familiar with the environment. Open field activity determination provides data on the general activity level of mice (i.e. hypo- or hyper-active), as well as an indication of the animal's anxiety-related behaviors in an open-space.

WT and GPR88 KO mice [3] = assay: Amphetamine-induced hyperactivity (locomotor activity in activity chambers); assay type: in vivo, mouse; settings: amphetamine 2.5 mg/kg i.p., 30 minutes after injection, monitored 20 min, both WT and GPR88 KO mice, p<0.001
Description: Open field activity was monitored in VersaMax chambers (Accuscan Instruments, Columbus, Ohio) measuring 40×40 cm. Locomotor activity was detected by photobeams breaks as the animal crossed each beam. The animal was placed in the center of the field and then left undisturbed for a period of time (20 min to 2 hr) in order to measure its spontaneous activity in a novel environment. Measurements used to assess locomotor activity included: horizontal activity, total distance traveled, vertical activity (rearing events—animal raises up on hindlimbs), rotation, stereotypy, and distance traveled in the center compared to total distance traveled (center: total distance ratio).
Amphetamine-induced hyperactivity of GPR88 knockout mice was measured by injecting the animals with amphetamine and monitoring the animals' activity levels.

GPR88 KO and WT mice [4] = assay: Amphetamine-induced reduction of prepulse inhibition (PPI) of acoustic startle; settings: amphetamine 2.5 mg/kg i.p., tested 30 min later
WT and GPR88 KO mice [5] = assay: Amphetamine-induced reduction of prepulse inhibition (PPI) of the acoustic startle response; settings: amphetamine 2.5 mg/kg i.p., tested 30 minutes later, both WT and GPR88 KO mice (129sv)
WT and GPR85 KO mice = settings: 2.5 g/kg i.p. ethanol, rectal temperature 30 minutes post injection, both WT and GPR85 KO mice
Description: Initial sensitivity to alcohol is measured in mice after a single (acute) dose. […] Core body temperature was measured rectally (T0) (Physitemp) and then the mice were administered an i.p. dose of 2.5 mg/kg and placed in a Plexiglas dosing chamber. that is the same size as the animal's cage. Core body temperature was measured rectally 30 minutes post injection (T1) and returned to their home cage. Mice were housed in the testing room overnight.

CNc1ccc2oc(C[C@H]3O[C@@]4(CC[C@H]3C)O[C@H]([C@H](C)C(=O)c3ccc[nH]3)[C@H](C)C[C@H]4C)nc2c1C(=O)O [A23187]
increase of calcium signal above baseline levels [1]: 200%

Nc1ncnc2c1ncn2[C@@H]1O[C@H](COP(=O)(O)OP(=O)(O)OP(=O)(O)O)[C@@H](O)[C@H]1O [ATP]
increase of calcium signal above baseline levels [1]: 200%

CC(N)Cc1ccccc1 (centres unmarked) [amphetamine]
locomotor activity after amphetamine compared to baseline locomotor activity in the absence of drugs (GPR88 KO and WT mice [2]): significantly higher activity
locomotor activity compared to baseline in the absence of drugs (WT and GPR88 KO mice [3]): significantly higher activity
startle responses to the 120 dB stimulus after amphetamine treatment (GPR88 KO and WT mice [4]; both WT and GPR88 KO mice (129sv)): significantly decreased
PPI after amphetamine treatment (GPR88 KO and WT mice [4]; both WT and GPR88 KO mice, p<0.001): significant reduction of PPI
startle response to the 120 dB stimulus (WT and GPR88 KO mice [5]): significantly decreased

CCO [ethanol]
effect on core body temperature (hypothermic effect) (WT and GPR85 KO mice): reduced body temperature in both WT and KO mice
